According to US20250066367A1, “Pyrimidine-Annulated Triazole Derivatives and Their Use in Platelet Aggregation Inhibition” (BEIJING HONGHUI MEDITECH CO., LTD., priority 2021, published 2025):

These compounds were tested against human P2Y12 receptor (Homo sapiens, UniProt Q9H244) (assay: Inhibition study in human P2Y12 receptor transfected CHO cells (cAMP, LANCE Ultra cAMP Kit)). Settings: not given.
Type: cell-based
Method: A CHO cell line which stably expresses human P2Y12 receptors was used in the study of the inhibitory effect of the compounds of the disclosure. (The cell line was constructed by Beijing Ion Channel Explorer Co.) The hP2Y12-CHO Cells were cultured in Ham's F-12 medium (Ham's F-12 Medium: +10% FBS +200 μg/ml Hygromycin B) and incubated at 37° C. under 5% CO2. The poor culture medium was removed, and the cells were washed with PBS. Then 1 mL trypsin solution was added to digest/detach the cells. The culture dish was incubated at 37° C. for 2 minutes. As soon as the cells were detached, 5 mL 37° C. pre-warmed complete medium was added. Cell suspension was transferred into a sterile pipet, the cells aggregates were dissociated by a gentle homogenization. The cell suspension was transferred into a sterile tube, and centrifuged at 1000 rpm for 5 minutes; In order to maintain the physiological activity of cells, the degree of cell fusion was controlled at about 80%.
After cell counting, the cells were cultured in 384-well plate. The test compounds were serially diluted 5-fold from 10000 nM for 10 concentrations and in 3 replicates. Ticagrelor was used as the reference compound and 2-MeSADP as the inducer. After the incubation for 15 min at 37° C., forskolin buffer was added to all wells to induce the production of cAMP. The plate was centrifuged at 1000 rpm for 1 minute, followed by incubation at 37° C. for 30 min. After lysis, the cAMP expression was quantified using PerkinElmer's LANCE® Ultra cAMP Kit method.

human P2Y12 receptor, sequence (Q9H244 whole entry): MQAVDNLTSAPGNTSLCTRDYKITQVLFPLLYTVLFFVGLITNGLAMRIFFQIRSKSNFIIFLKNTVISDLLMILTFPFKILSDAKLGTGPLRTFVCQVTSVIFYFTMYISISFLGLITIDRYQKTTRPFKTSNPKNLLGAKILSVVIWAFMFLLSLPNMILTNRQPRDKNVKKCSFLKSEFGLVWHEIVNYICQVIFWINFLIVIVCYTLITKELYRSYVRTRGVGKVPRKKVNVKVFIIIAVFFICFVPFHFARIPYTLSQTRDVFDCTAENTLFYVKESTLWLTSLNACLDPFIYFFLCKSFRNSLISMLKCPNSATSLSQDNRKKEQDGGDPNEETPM

IC50 | SMILES
< 50 nM | CCCSc1nc(N[C@@H]2C[C@H]2c2ccc(F)c(F)c2)c2nnn([C@@H]3C[C@H](OCCO)[C@@H](O)[C@H]3O)c2n1 [Ticagrelor, reference compound]

Same assay, conditions: hP2Y12-CHO cells; 2-MeSADP as inducer; forskolin-induced cAMP; read-out: Inbibition of P2Y12 IC50

SMILES | IC50
CCCSc1nc(N[C@@H]2C[C@H]2c2ccc(F)c(F)c2)c2nnn([C@@H]3[C@H](F)[C@H](CO)O[C@H]3CO)c2n1 [Compound 39a, ((2R,3S,4S,5S)-3-(7-(((1R,2S)-2-(3,4-difluorophenyl)cyclopropyl)amino)-5-(propylthio)-3H-[1,2,3]triazolo[4,5-d]pyrimidin-3-yl)-4-fluorotetrahydrofuran-2,5-diyl)dimethanol] | 50 to 250 nM
CCCSc1nc(N[C@@H]2C[C@H]2c2ccc(F)c(F)c2)c2nnn([C@@H]3[C@@H](F)[C@H](CO)O[C@H]3CO)c2n1 [Compound 39b, ((2R,3S,4R,5S)-3-(7-(((1R,2S)-2-(3,4-difluorophenyl)cyclopropyl)amino)-5-(propylthio)-3H-[1,2,3]triazolo[4,5-d]pyrimidin-3-yl)-4-fluorotetrahydrofuran-2,5-diyl)dimethanol] | 50 to 250 nM
CCCSc1nc(N[C@@H]2C[C@H]2c2ccc(F)c(F)c2)c2nnn([C@@H]3C[C@H](CO)O[C@H]3CO)c2n1 [Compound 19, ((2R,3R,5R)-3-(7-(((1R,2S)-2-(3,4-difluorophenyl)cyclopropyl)amino)-5-(propylthio)-3H-[1,2,3]triazolo[4,5-d]pyrimidin-3-yl)tetrahydrofuran-2,5-diyl)dimethanol] | < 50 nM
CCCSc1nc(N[C@@H]2C[C@H]2c2ccc(F)c(F)c2)c2nnn([C@H]3CO[C@@H](CO)C3)c2n1 [Compound 32, ((2R,4R)-4-(7-(((1R,2S)-2-(3,4-difluorophenyl)cyclopropyl)amino)-5-(propylthio)-3H-[1,2,3]triazolo[4,5-d]pyrimidin-3-yl)tetrahydrofuran-2-yl)methanol] | < 50 nM
CCCSc1nc(N[C@@H]2C[C@H]2c2ccc(F)c(F)c2)c2nnn([C@H]3CO[C@@H](CO)[C@@H]3O)c2n1 [Compound 27, (2S,3R,4S)-4-(7-(((1R,2S)-2-(3,4-difluorophenyl)cyclopropyl)amino)-5-(propylthio)-3H-[1,2,3]triazolo[4,5-d]pyrimidin-3-yl)-2-(hydroxymethyl)tetrahydrofuran-3-ol] | < 50 nM
CCCSc1nc(N[C@@H]2C[C@H]2c2ccc(F)c(F)c2)c2nnn([C@@H]3[C@@H](O)[C@H](CO)O[C@H]3CO)c2n1 [Compound 8, ((2R,3R,4R,5S)-3-(7-(((1R,2S)-2-(3,4-difluorophenyl)cyclopropyl)amino)-5-(propylthio)-3H-[1,2,3]triazolo[4,5-d]pyrimidin-3-yl)-4-hydroxytetrahydrofuran-2,5-diyl)dimethanol] | 250 to 1250 nM

More lines, now with the values ahead:

IC50 | SMILES
250 to 1250 nM | CCC[S+]([O-])c1nc(N[C@@H]2C[C@H]2c2ccc(F)c(F)c2)c2nnn([C@@H]3C[C@H](C(=O)O)O[C@H]3CO)c2n1 (stereo partly drawn) [Compound 43, (2R,4R,5R)-4-(7-(((1R,2S)-2-(3,4-difluorophenyl)cyclopropyl)amino)-5-(propylsulfinyl)-3H-[1,2,3]triazolo[4,5-d]pyrimidin-3-yl)-5-(hydroxymethyl) tetrahydrofuran-2-carboxylic Acid]
250 to 1250 nM | CCCSc1nc(N[C@@H]2C[C@H]2c2ccc(F)c(F)c2)c2nnn([C@@H]3C[C@H](CO)O[C@H]3COC)c2n1 [Compound 49, ((2R,4R,5R)-4-(7-(((1R,2S)-2-(3,4-difluorophenyl)cyclopropyl)amino)-5-(propylthio)-3H-[1,2,3]triazolo[4,5-d]pyrimidin-3-yl)-5-(methoxymethyl)tetrahydrofuran-2-yl)methanol]
< 50 nM | CCCSc1nc(N[C@@H]2C[C@H]2c2ccc(F)c(F)c2)c2nnn([C@@H]3C[C@H](C(=O)O)O[C@H]3CO)c2n1 [Compound 42, (2R,4R,5R)-4-(7-(((1R,2S)-2-(3,4-difluorophenyl)cyclopropyl)amino)-5-(propylthio)-3H-[1,2,3]triazolo[4,5-d]pyrimidin-3-yl)-5-(hydroxymethyl)tetrahydrofuran-2-carboxylic acid]
> 1250 nM | CCCSc1nc(N[C@@H]2C[C@H]2c2ccc(F)c(F)c2)c2nnn([C@@H]3C[C@H](CCO)O[C@H]3CO)c2n1 [Compound 54, 2-((2R,4R,5R)-4-(7-(((1R,2S)-2-(3,4-difluorophenyl)cyclopropyl)amino)-5-(propylthio)-3H-[1,2,3]triazolo[4,5-d]pyrimidin-3-yl)-5-(hydroxymethyl)tetrahydrofuran-2-yl)ethan-1-ol]
